Source: patent US20180071284A1, “PREVENTING OR TREATING VIRAL INFECTION BY INHIBITION OF THE HISTONE METHYLTRANSFERASE EZH1 OR EZH2” (The United States of America, as represented by the …, priority 2015, published 2018)
Entries after “also recorded” stand apart in the source; their conditions may differ.

Experiments:
[1] = tested on: HSV-1; experiment: Spread of HSV infection in HFF cells (UL29 staining); assay type: cell-based, herpes simplex virus 1 (HSV-1); settings: HSV-1 MOI 0.01 for 8.5-hrs, then treated for 12.5-hrs (30 μM)
Procedure: HFF cells were mock or infected with HSV-1 (MOI 0.01) for 8.5-hrs to allow one round of the viral replication program. The HFF cells were then treated with EZH1/2 inhibitor (compound 1 or compound 4 at 30 μM), viral DNA polymerase inhibitor (ACV at 100 μM), or JMJD3 inhibitor (ML324 at 50 μM) for an additional 12.5-hrs. Cells were paraformaldehyde fixed, permeabilized, and stained for the viral E gene UL29 and actin. The viral E protein UL29 was used as a marker for the spread of viral infection.
HFF cells were mock or infected with HSV-1 (MOI 0.01) for 8.5-hrs to allow one round of the viral replication program. HFF cells were then treated with EZH1/2 (compound 1, compound 4), viral DNA polymerase (ACV), or JMJD3 (ML324) inhibitors for additional 12.5-hrs. Cells were paraformaldehyde fixed, permeabilized, and stained for the viral E gene UL29 and actin (Phalloidin). The viral E protein UL29 was used as a marker for the spread of viral infection.

[2] = tested on: HSV-1; experiment: HSV-1 cellular and nuclear entry (viral DNA in total and nuclear fractions of HFF cells); assay type: cell-based, herpes simplex virus 1 (HSV-1); settings: compound 1 35 μM, compound 4 30 μM, 5-hrs pretreatment, HSV-1 2.0 PFU per cell 1.5-hrs
Procedure: HFF cells were treated with the EZH1/2 catalytic inhibitor compound 1 (35 μM), compound 4 (30 μM), or DMSO (vehicle) for 5-hrs. The HFF cells were then infected with HSV-1 (2.0 PFU per cell) for 1.5-hrs in the presence of the inhibitors or DMSO (vehicle). The levels of HSV viral DNA isolated from total and nuclear cellular fractions are expressed as ratios relative to DMSO (vehicle).

[3] = tested on: cytokines, chemokines, and adhesion proteins involved in innate signaling; experiment: RNA-seq analysis of explanted trigeminal ganglia from HSV-1 latently infected mice; assay type: cell-based; settings: 30 μM, 12 hrs
Procedure: Trigeminal ganglia from HSV-1 latently infected mice were explanted in media with control DMSO (vehicle) or in media with compound 4 (30 μM) for 12 hrs. Total cellular RNA was isolated and RNA-seq analysis identified the induction of cytokines, chemokines, and adhesion proteins involved in innate signaling and recruitment of immune effector cells. The results are in Table 1 below, where changes in gene expression are expressed as ratios of compound 4 relative to vehicle.

[4] = tested on: neutrophil (Ly6G); experiment: Neutrophil recruitment to the site of HSV infection in mouse eyes; assay type: in vivo, Balb/c mice; settings: topical to the eyes, 30 μM twice daily, day 5
Procedure: The eyes of Balb/c mice were scarified and mock or infected with 2×10^5 pfu of HSV-1 (strain F) per eye. Beginning on day 0.5, the eyes of mice were treated either with EZH1/2 inhibitor (compound 4: 30 μM), acyclovir (ACV: 30 μM), or vehicle control twice daily. On day 5, the eyes were fixed in paraformaldehyde and tissue sections were co-stained with anti-HSV-1, anti-Ly6G (neutrophil), and DAPI.

[5] = tested on: Zika virus (ZIKV); experiment: Zika virus infection of HFF cells (focus forming units, percent infected cells); assay type: cell-based
Procedure: FIG. 32 presents line graphs that show the number and size of Focus Forming Units (FFU) after HFF cells were treated with the indicated concentrations of compound 4 for 5 h and infected with ZIKV for 40 h, in accordance with embodiments of the invention.
HFF cells were treated with compound 4 and infected with Zika virus (ZIKV), a member of the flavivirus family.
To determine if pretreatment was required to suppress ZIKV infection, cells were pretreated with compound 4 or were treated 3 h post ZIKV adsorption. While pretreatment was modestly more efficient at suppression of infection at lower compound 4 concentrations, it was not essential to effect significant suppression (FIG. 34).

[6] = HFF cells treated 5 h, infected with ZIKV for 40 h, dose-dependent

CC[C@H](C)n1cc(C)c2c(C(=O)NCc3c(C)cc(C)[nH]c3=O)cc(-c3ccc(N4CCNCC4)nc3)cc21 [compound 4, GSK126]
spread of HSV infection to adjacent cells (UL29 marker) [1]: block the spread of HSV to adjacent cells; also recorded: block the spread of HSV infection
HSV-1 viral entry (total and nuclear) [2]: no impact
genes induced >2 fold that are co-regulated by IFN (Interferome), ganglia explants [3]: 33 genes
share of genes induced >2 fold that are co-regulated by IFN (Interferome), ganglia explants [3]: 69%
Fold Change (Cmpd. 4 relative to vehicle) ([3]; Gene CCL2 (Chemokines)): 2.23
Fold Change (Cmpd. 4 relative to vehicle) ([3]; Gene CXCL1 (Chemokines)): 6.30
Fold Change (Cmpd. 4 relative to vehicle) ([3]; Gene CXCL2 (Chemokines)): 5.11
Fold Change (Cmpd. 4 relative to vehicle) ([3]; Gene CXCL3 (Chemokines)): 2.68
Fold Change (Cmpd. 4 relative to vehicle) ([3]; Gene CXCL5 (Chemokines)): 3.78
Fold Change (Cmpd. 4 relative to vehicle) ([3]; Gene G-CSF (Cytokines)): 6.16
Fold Change (Cmpd. 4 relative to vehicle) ([3]; Gene GM-CSF (Cytokines)): 5.51
Fold Change (Cmpd. 4 relative to vehicle) ([3]; Gene ICAM1 (Adhesion)): 2.51
Fold Change (Cmpd. 4 relative to vehicle) ([3]; Gene IL6 (Cytokines)): 3.61
Fold Change (Cmpd. 4 relative to vehicle) ([3]; Gene IL11 (Cytokines)): 2.16
Fold Change (Cmpd. 4 relative to vehicle) ([3]; Gene LIF (Cytokines)): 2.66
Fold Change (Cmpd. 4 relative to vehicle) ([3]; Gene SELE (Adhesion)): 3.86
Fold Change (Cmpd. 4 relative to vehicle) ([3]; Gene SELP (Adhesion)): 3.16
Fold Change (Cmpd. 4 relative to vehicle) ([3]; Gene VEGF-c (Cytokines)): 2.10
neutrophil recruitment to the site of HSV infection [4]: Recruitment/infiltration of neutrophils
number of ZIKV infected cells (intracellular staining for ZIKV antigens) ([5]; 1 and 2 dpi): reduction
number of ZIKV focus forming units (plaques) [5, 6]: significantly reduced
size of ZIKV focus forming units (plaques) [5, 6]: significantly reduced
requirement of pretreatment for suppression of ZIKV infection ([5]; pretreated vs treated 3 h post ZIKV adsorption): not essential
